Assay results: ChEMBL document CHEMBL1208777, “Synthesis of novel oxime-containing pyrazole derivatives and discovery of regulators for apoptosis and autophagy in A549 lung cancer cells” (Bioorg Med Chem Lett, 2010)
Active and inactive are the calls of the source. No cut-off for these calls is given here.

Legend:
[1] = test system: A549; assay: Induction of necrosis in human A549 cells assessed as LDH release at 40 uM after 48 hrs; assay type: functional, cell-based
[2] = test system: A549; assay: Anticancer activity against human A549 cells assessed as increase in autophagosome level at 40 uM after 24 hrs by Western blot analysis; assay type: functional, cell-based
[3] = test system: A549; assay: Cytotoxicity against human A549 cells after 48 hrs by SRB assay; assay type: functional, cell-based; settings: for IC50: A549, 48 h
[4] = test system: A549; assay: Cytotoxicity against human A549 cells at 10 to 40 uM by SRB assay; assay type: functional, cell-based; settings: TDE = time-dependent effect
[5] = test system: A549; assay: Induction of apoptosis in human A549 cells assessed as occurrence of nuclear granulation at 10 to 40 uM after 48 hrs by Hoechst 33258 staining-based fluorescence microscopy; assay type: functional, cell-based
[6] = test system: A549; assay: Anticancer activity against human A549 cells assessed as occurrence of autophagy at 10 to 40 uM after 48 hrs by acridine orange staining-based fluorescence microscopy; assay type: functional, cell-based
[7] = test system: A549; assay: Cytotoxicity against human A549 cells at 10 uM after 48 hrs by SRB assay; assay type: functional; settings: A549, 48 h
[8] = test system: A549; assay: Cytotoxicity against human A549 cells at 40 uM after 48 hrs by SRB assay; assay type: functional; settings: A549, 48 h
[9] = test system: A549; assay: Anticancer activity against human A549 cells assessed as increase in autophagosome level at 20 uM after 24 hrs by Western blot analysis; assay type: functional, cell-based
[10] = test system: A549; assay: Cytotoxicity against human A549 cells at 20 uM after 48 hrs by SRB assay; assay type: functional; settings: A549, 48 h

With `CCOC(=O)c1cc(-c2ccccc2)nn1C/C(=N/O)c1ccc(OC)cc1` the Activity [1] was “inactive”, the Activity [2] was “inactive” and the Activity [3] was “Dose-dependent effect”. For the same compound, the IC50 [3] was 29.1 µM and the Activity [4] was “tde”.
With `CCOC(=O)c1cc(-c2ccc(Cl)cc2)nn1C/C(=N/O)c1ccccc1` the Activity [1] was “inactive”, the Activity [2] was “Active” and the Activity [5] was “Active”. For the same compound, the Activity [6] was “Active”, the Activity [3] was “Dose-dependent effect” and the IC50 [3] was 31.4 µM. For the same compound, the Activity [4] was “tde”.
In the case of `CCOC(=O)c1cc(-c2ccc(Cl)cc2)nn1C/C(=N/O)c1ccc(OC)cc1`, the Activity [1] is reported as “inactive”, the Activity [2] is reported as “Active” and the Activity [6] is reported as “Active”. For the same compound, the Activity [3] was “Dose-dependent effect”, the IC50 [3] was 17.8 µM and the Activity [4] was “tde”.
In the case of `CCOC(=O)c1cc(-c2ccc(OC)cc2)nn1C/C(=N/O)c1ccccc1`, the Activity [1] is reported as “inactive”, the Activity [5] is reported as “Active” and the Activity [3] is reported as “Dose-dependent effect”. For the same compound, the IC50 [3] was 42.7 µM and the Activity [4] was “tde”.
With `CCOC(=O)c1cc(-c2ccc(OC)cc2)nn1C/C(=N/O)c1ccc(OC)cc1` the Activity [1] was “inactive”, the Activity [2] was “Active” and the Activity [6] was “Active”. For the same compound, the Activity [3] was “Dose-dependent effect”, the IC50 [3] was 36.5 µM and the Activity [4] was “tde”.
For `CCOC(=O)c1cc(-c2ccc(OC)cc2)nn1C/C(=N/O)c1ccc(Cl)cc1`, the Activity [1] was “inactive”, the Activity [2] was “Active” and the Activity [5] was “Active”. For the same compound, the Activity [6] was “Active”, the Activity [3] was “Dose-dependent effect” and the IC50 [3] was 16.3 µM. For the same compound, the Activity [4] was “tde”.
`CCOC(=O)c1cc(-c2ccc(Cl)cc2)nn1C/C(=N/O)c1ccc(Cl)cc1` was tested, and the Activity [1] was “inactive”, the inhibition at 10 µM [7] was 58.6% and the inhibition at 40 µM [8] was 10.3%. The Activity [9] was “Active”, the Activity [5] was “Active” and the Activity [6] was “Active”. For the same compound, the Activity [3] was “Dose-dependent effect”, the IC50 [3] was 14.6 µM and the inhibition at 20 µM [10] was 51.9%. For the same compound, the Activity [4] was “tde”.
In the case of `CCOC(=O)c1cc(-c2ccccc2)nn1C/C(=N/O)c1ccccc1`, the Activity [1] is reported as “inactive”, the Activity [5] is reported as “Active” and the Activity [3] is reported as “Dose-dependent effect”. The IC50 [3] was 29.8 µM and the Activity [4] was “tde”.
For `CCOC(=O)c1cc(-c2ccccc2)nn1C/C(=N/O)c1ccc(Cl)cc1`, the Activity [1] was “inactive”, the Activity [9] was “Active” and the Activity [5] was “Active”. The Activity [6] was “Active”, the Activity [3] was “Dose-dependent effect” and the IC50 [3] was 26.3 µM. For the same compound, the Activity [4] was “tde”.
